Data reported in PubChem BioAssay (NCI).
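Tested at 5 concentrations; 48 h exposure; 96-well plates; endpoints linearly interpolated, else capped at highest concentration. The concentration for 50% growth inhibition is given as GI50. TGI: concentration producing complete growth inhibition.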

Columns and labels:
Assay in all cases: growth of human tumour cells (NCI), 48 h
786-0 renal = system: 786-0 renal
A498 renal = system: A498 renal
A549 NSCLC = system: A549 NSCLC
ACHN renal = system: ACHN renal
BT-549 breast = system: BT-549 breast
CAKI-1 renal = system: CAKI-1 renal
CCRF-CEM leukemia = system: CCRF-CEM leukemia
COLO 205 colon = system: COLO 205 colon
DU-145 prostate = system: DU-145 prostate
EKVX NSCLC = system: EKVX NSCLC
HCC-2998 colon = system: HCC-2998 colon
HCT-15 colon = system: HCT-15 colon
HL-60(TB) leukemia = system: HL-60(TB) leukemia
HOP-62 NSCLC = system: HOP-62 NSCLC
HOP-92 NSCLC = system: HOP-92 NSCLC
HS 578T breast = system: HS 578T breast
HT29 colon = system: HT29 colon
IGROV1 ovarian = system: IGROV1 ovarian
K-562 leukemia = system: K-562 leukemia
KM12 colon = system: KM12 colon
LOX IMVI melanoma = system: LOX IMVI melanoma
M14 melanoma = system: M14 melanoma
MALME-3M melanoma = system: MALME-3M melanoma
MCF7 breast = system: MCF7 breast
MDA-MB-231 breast = system: MDA-MB-231 breast
MDA-MB-435 = system: MDA-MB-435
MOLT-4 leukemia = system: MOLT-4 leukemia
NCI-H226 lung = system: NCI-H226 lung
NCI-H23 lung = system: NCI-H23 lung
NCI-H460 lung = system: NCI-H460 lung
NCI-H522 lung = system: NCI-H522 lung
NCI/ADR-RES ovarian = system: NCI/ADR-RES ovarian
OVCAR-4 ovarian = system: OVCAR-4 ovarian
OVCAR-5 ovarian = system: OVCAR-5 ovarian
OVCAR-8 ovarian = system: OVCAR-8 ovarian
PC-3 prostate = system: PC-3 prostate
RPMI-8226 leukemia = system: RPMI-8226 leukemia
RXF 393 renal = system: RXF 393 renal
SF-268 CNS = system: SF-268 CNS
SF-295 CNS = system: SF-295 CNS
SF-539 CNS = system: SF-539 CNS
SK-MEL-2 melanoma = system: SK-MEL-2 melanoma
SK-MEL-28 melanoma = system: SK-MEL-28 melanoma
SK-MEL-5 melanoma = system: SK-MEL-5 melanoma
SK-OV-3 ovarian = system: SK-OV-3 ovarian
SN12C renal = system: SN12C renal
SNB-19 CNS = system: SNB-19 CNS
SNB-75 CNS = system: SNB-75 CNS
SR leukemia = system: SR leukemia
SW-620 colon = system: SW-620 colon
T-47D breast = system: T-47D breast
TK-10 renal = system: TK-10 renal
U251 CNS = system: U251 CNS
UACC-257 melanoma = system: UACC-257 melanoma
UACC-62 melanoma = system: UACC-62 melanoma
UO-31 renal = system: UO-31 renal

CNC[C@@H](NC(=O)c1ccc(-c2nc([C@H]3CC[C@H](O)[C@@H](F)C3)cnc2N)cc1F)c1cc(F)cc(Br)c1
GI50 (786-0 renal): 14 µM
TGI (786-0 renal): 29.5 µM
GI50 (A498 renal): 13.1 µM
TGI (A498 renal): 26.7 µM
GI50 (A549 NSCLC): 14.3 µM
TGI (A549 NSCLC): 30.1 µM
GI50 (ACHN renal): 15 µM
TGI (ACHN renal): 29.1 µM
GI50 (BT-549 breast): 11.2 µM
TGI (BT-549 breast): 25.3 µM
GI50 (CAKI-1 renal): 11.6 µM
TGI (CAKI-1 renal): 28.3 µM
GI50 (CCRF-CEM leukemia): 16 µM
TGI (CCRF-CEM leukemia): 39.1 µM
GI50 (COLO 205 colon): 13 µM
TGI (COLO 205 colon): 27 µM
GI50 (DU-145 prostate): 17.2 µM
TGI (DU-145 prostate): 32.8 µM
GI50 (EKVX NSCLC): 16.1 µM
TGI (EKVX NSCLC): 33.2 µM
GI50 (HCC-2998 colon): 17.3 µM
TGI (HCC-2998 colon): 31.8 µM
GI50 (HCT-15 colon): 16.5 µM
TGI (HCT-15 colon): 31.8 µM
GI50 (HL-60(TB) leukemia): 13.6 µM
TGI (HL-60(TB) leukemia): 34.2 µM
GI50 (HOP-62 NSCLC): 14.3 µM
TGI (HOP-62 NSCLC): 28.7 µM
GI50 (HOP-92 NSCLC): 2.57 µM
TGI (HOP-92 NSCLC): 16.5 µM
GI50 (HS 578T breast): 12.6 µM
TGI (HS 578T breast): 39.4 µM
GI50 (HT29 colon): 13.2 µM
TGI (HT29 colon): 27 µM
GI50 (IGROV1 ovarian): 16 µM
TGI (IGROV1 ovarian): 34 µM
GI50 (K-562 leukemia): 13.6 µM
TGI (K-562 leukemia): 38.2 µM
GI50 (KM12 colon): 16 µM
TGI (KM12 colon): 31.3 µM
GI50 (LOX IMVI melanoma): 15 µM
TGI (LOX IMVI melanoma): 29.4 µM
GI50 (M14 melanoma): 15.2 µM
TGI (M14 melanoma): 31.1 µM
GI50 (MALME-3M melanoma): 13.9 µM
TGI (MALME-3M melanoma): 28.9 µM
GI50 (MCF7 breast): 18.3 µM
TGI (MCF7 breast): 34.5 µM
GI50 (MDA-MB-231 breast): 12.7 µM
TGI (MDA-MB-231 breast): 27.3 µM
GI50 (MDA-MB-435): 16.1 µM
TGI (MDA-MB-435): 30.9 µM
GI50 (MOLT-4 leukemia): 15 µM
TGI (MOLT-4 leukemia): 49.2 µM
GI50 (NCI-H226 lung): 16.5 µM
TGI (NCI-H226 lung): 35.3 µM
GI50 (NCI-H23 lung): 17.8 µM
TGI (NCI-H23 lung): 35.3 µM
GI50 (NCI-H460 lung): 17.7 µM
TGI (NCI-H460 lung): 33.5 µM
GI50 (NCI-H522 lung): 16.6 µM
TGI (NCI-H522 lung): 32.4 µM
GI50 (NCI/ADR-RES ovarian): 38.9 µM
TGI (NCI/ADR-RES ovarian): > 100 µM
GI50 (OVCAR-4 ovarian): 18.1 µM
TGI (OVCAR-4 ovarian): 50.2 µM
GI50 (OVCAR-5 ovarian): 16.4 µM
TGI (OVCAR-5 ovarian): 40.2 µM
GI50 (OVCAR-8 ovarian): 17.3 µM
TGI (OVCAR-8 ovarian): 35 µM
GI50 (PC-3 prostate): 12.3 µM
TGI (PC-3 prostate): 25.5 µM
GI50 (RPMI-8226 leukemia): 11.2 µM
TGI (RPMI-8226 leukemia): 30.8 µM
GI50 (RXF 393 renal): 6.28 µM
TGI (RXF 393 renal): 21.1 µM
GI50 (SF-268 CNS): 12.6 µM
TGI (SF-268 CNS): 30.2 µM
GI50 (SF-295 CNS): 17.1 µM
TGI (SF-295 CNS): 32.5 µM
GI50 (SF-539 CNS): 15.2 µM
TGI (SF-539 CNS): 29.1 µM
GI50 (SK-MEL-2 melanoma): 14 µM
TGI (SK-MEL-2 melanoma): 28.7 µM
GI50 (SK-MEL-28 melanoma): 17 µM
TGI (SK-MEL-28 melanoma): 32.4 µM
GI50 (SK-MEL-5 melanoma): 15.2 µM
TGI (SK-MEL-5 melanoma): 29.3 µM
GI50 (SK-OV-3 ovarian): 17 µM
TGI (SK-OV-3 ovarian): 31.3 µM
GI50 (SN12C renal): 16.5 µM
TGI (SN12C renal): 32.9 µM
GI50 (SNB-19 CNS): 17.7 µM
TGI (SNB-19 CNS): 36 µM
GI50 (SNB-75 CNS): 4.09 µM
TGI (SNB-75 CNS): 23.5 µM
GI50 (SR leukemia): 13.1 µM
TGI (SR leukemia): 35.3 µM
GI50 (SW-620 colon): 18.4 µM
TGI (SW-620 colon): 34.5 µM
GI50 (T-47D breast): 18.3 µM
TGI (T-47D breast): 36.2 µM
GI50 (TK-10 renal): 12.2 µM
TGI (TK-10 renal): 28.9 µM
GI50 (U251 CNS): 14.6 µM
TGI (U251 CNS): 32.4 µM
GI50 (UACC-257 melanoma): 15 µM
TGI (UACC-257 melanoma): 30.5 µM
GI50 (UACC-62 melanoma): 17.4 µM
TGI (UACC-62 melanoma): 32.8 µM
GI50 (UO-31 renal): 12.3 µM
TGI (UO-31 renal): 26.4 µM
